This note sets out measurements from US20060183800A1, “Methods and fluorinated compositions for treating amyloid-related diseases” (priority 2004, published 2006).

The target in this assay is solubilized Aβ40 (Homo sapiens, UniProt P05067). Kind of assay: MS (mass spectrometry) binding assay for Aβ40. How it is done: The test compounds were synthesized and screened by mass spectrometry (“MS”) assays. The MS assay gives data on the ability of compounds to bind to proteins, in this example, to β-amyloid.
Sequence of solubilized Aβ40 (P05067 672-711 limits assumed): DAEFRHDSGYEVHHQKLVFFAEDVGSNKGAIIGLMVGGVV
In the MS assay for Aβ40, the sample was prepared as an aqueous solution (adding 20% ethanol if necessary to solubilize in water), 200 μM of a test compound and 20 μM of solubilized Aβ40, or 400 μM of a test compound and 40 μM of solubilized Aβ40. The pH value of the sample was adjusted to 7.4 (±0.2) by addition of 0.1% aqueous sodium hydroxide. The solution was then analyzed by electrospray ionization mass spectrometry using a Waters ZQ 4000 mass spectrometer. The sample was introduced by direct infusion at a flow-rate of 25 μL/min within 2 hr. after sample preparation. The source temperature was kept at 70° C. and the cone voltage was 20 V for all the analysis. Data were processed using Masslynx 3.5 software. The MS assay gives data on the ability of compounds to bind to soluble Aβ.

Consider `O=S(=O)(O)CCCNCC(F)(F)F` [3-[(2,2,2-trifluoroethyl)amino]-1-propanesulfonic acid], for which the “binding to soluble Aβ40” value is given as 20-44% (200 μM of test compound) and 45-59% (400 μM of test compound).
